Test results reported in patent publication US7067700B2, “Process for preparing sertraline hydrochloride polymorphic form II” (Fermion Oy, priority 2001, dated 2006).
Where a name gives a salt, the structure may show the parent alone.

Legend:
[1] = stability of sertraline hydrochloride polymorphic forms; assay type: physicochemical; conditions: statement in words
[2] = dissolution / solubility of sertraline hydrochloride polymorphic forms; assay type: physicochemical; conditions: comparison of polymorphic forms; statement in words
[3] = claimed in the cited patent; cited from earlier work
[4] = claimed in the cited patent; cited from earlier work; remark: listed apart in the source

| SMILES | stability of the polymorph (comparison of forms) ([1]; compared with form II) | dissolution properties [2] | stability as claimed in U.S. Pat. No. 5,734,083 [3] | solubility in aqueous fluids as claimed in U.S. Pat. No. 5,734,083 [4] | stability of the polymorph ([1]; form II prepared by the method described, no test described) |
| --- | --- | --- | --- | --- | --- |
| CN[C@H]1CC[C@@H](c2ccc(Cl)c(Cl)c2)c2ccccc21.Cl [Form I] | more stable | poor dissolution properties |  |  |  |
| CN[C@H]1CC[C@@H](c2ccc(Cl)c(Cl)c2)c2ccccc21.Cl [Polymorphic form T1] |  | dissolves better than forms I and II | acceptable stable | enhanced solubility |  |
| CNC1CCC(c2ccc(Cl)c(Cl)c2)c2ccccc21 (stereo not drawn) [(1S-cis)-4-(3,4-dichlorophenyl)-1,2,3,4-tetrahydro-N-methyl-1-naphtalenamine hydrochloride] |  |  |  |  | stable |
